Results taken from ChEMBL document CHEMBL1909046, “DrugMatrix in vitro pharmacology data”.

Experiments:
B2 bradykinin receptor = biological target: T1, B2 bradykinin receptor (Homo sapiens, UniProt P30411); format: cell membranes, Membrane; settings: chem-1; further: in other assays of this panel Not Active means under 50% inhibition at 10 µM
T1 sequence (P30411 whole entry): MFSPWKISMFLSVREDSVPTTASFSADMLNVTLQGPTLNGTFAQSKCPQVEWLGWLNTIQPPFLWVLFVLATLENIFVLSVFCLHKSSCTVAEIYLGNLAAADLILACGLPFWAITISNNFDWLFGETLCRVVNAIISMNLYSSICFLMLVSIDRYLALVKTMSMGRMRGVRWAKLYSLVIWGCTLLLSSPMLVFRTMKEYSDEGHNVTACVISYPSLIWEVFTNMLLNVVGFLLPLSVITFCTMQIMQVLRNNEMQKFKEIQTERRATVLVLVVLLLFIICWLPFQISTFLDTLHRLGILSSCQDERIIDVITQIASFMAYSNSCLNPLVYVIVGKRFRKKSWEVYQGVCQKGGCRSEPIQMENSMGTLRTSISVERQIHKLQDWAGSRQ

[1] = DRUGMATRIX: Tumor Necrosis Factor (TNF), Non-Selective radioligand binding (ligand: [125I] TNF-alpha); format: cell membranes, Membrane; settings: u-937; Not Active = under 50% inhibition at 10 µM
[2] = DRUGMATRIX: Nicotinic Acetylcholine radioligand binding (ligand: [125I] Epibatidine); format: cell membranes, Membrane; settings: imr-32; Not Active = under 50% inhibition at 10 µM
[3] = DRUGMATRIX: Phosphodiesterase PDE3 enzyme inhibition (substrate: [3H]cAMP + cAMP); format: tissue-based, Homo sapiens; settings: platelet; Not Active = under 50% inhibition at 10 µM
[4] = biological target: Tyrosine-protein kinase Fyn (Homo sapiens, UniProt P06241); experiment: biochemical; format: cell-based, Insect cells; settings: insect cells;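 further: enzymatic inhibition of Fyn kinase activity measured with Poly(Glu:Tyr) as the phosphorylation substrate; in other assays of this panel Not Active means under 50% inhibition at 10 µM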
Tyrosine-protein kinase Fyn, sequence (P06241 whole entry): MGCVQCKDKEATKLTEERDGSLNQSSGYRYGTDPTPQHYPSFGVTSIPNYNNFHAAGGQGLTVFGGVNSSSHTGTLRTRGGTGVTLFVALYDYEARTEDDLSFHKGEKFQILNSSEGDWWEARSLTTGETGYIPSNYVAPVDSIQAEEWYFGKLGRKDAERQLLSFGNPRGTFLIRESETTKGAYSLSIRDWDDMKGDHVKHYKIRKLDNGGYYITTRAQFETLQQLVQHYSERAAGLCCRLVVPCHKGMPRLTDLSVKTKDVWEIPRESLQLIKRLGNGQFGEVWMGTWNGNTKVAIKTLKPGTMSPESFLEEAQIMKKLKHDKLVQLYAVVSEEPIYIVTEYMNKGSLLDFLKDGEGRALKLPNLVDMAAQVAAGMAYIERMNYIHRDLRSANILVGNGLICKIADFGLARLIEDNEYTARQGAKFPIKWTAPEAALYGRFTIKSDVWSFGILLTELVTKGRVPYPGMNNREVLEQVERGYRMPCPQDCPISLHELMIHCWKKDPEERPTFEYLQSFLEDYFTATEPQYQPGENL

[5] = biological target: Tyrosine-protein kinase Lck (Homo sapiens, UniProt P06239); experiment: DRUGMATRIX: Protein Tyrosine Kinase, LCK enzyme inhibition (substrate: Poly(Glu:Tyr)); format: cell-based, Insect cells; settings: insect cells; Not Active = under 50% inhibition at 10 µM
Tyrosine-protein kinase Lck, sequence (P06239 whole entry): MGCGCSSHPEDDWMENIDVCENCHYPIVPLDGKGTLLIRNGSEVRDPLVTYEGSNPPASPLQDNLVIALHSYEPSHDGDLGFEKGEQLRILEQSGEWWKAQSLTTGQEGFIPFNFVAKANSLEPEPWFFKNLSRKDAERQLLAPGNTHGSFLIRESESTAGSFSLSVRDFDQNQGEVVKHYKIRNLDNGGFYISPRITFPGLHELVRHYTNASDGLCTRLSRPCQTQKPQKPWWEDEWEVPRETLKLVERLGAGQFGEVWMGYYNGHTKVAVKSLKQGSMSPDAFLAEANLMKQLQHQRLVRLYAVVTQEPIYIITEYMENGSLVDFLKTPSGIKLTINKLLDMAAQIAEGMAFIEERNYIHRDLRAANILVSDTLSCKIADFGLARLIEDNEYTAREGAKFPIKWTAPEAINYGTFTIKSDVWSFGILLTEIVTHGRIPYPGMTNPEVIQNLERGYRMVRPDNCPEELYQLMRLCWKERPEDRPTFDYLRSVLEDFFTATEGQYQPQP

Cytochrome P450 2E1 = Cytochrome P450 2E1 (Homo sapiens, UniProt P05181); settings: bti-tn-5b1-4; further: in other assays of this panel Not Active means under 50% inhibition at 10 µM
Cytochrome P450 2E1, sequence (P05181 whole entry): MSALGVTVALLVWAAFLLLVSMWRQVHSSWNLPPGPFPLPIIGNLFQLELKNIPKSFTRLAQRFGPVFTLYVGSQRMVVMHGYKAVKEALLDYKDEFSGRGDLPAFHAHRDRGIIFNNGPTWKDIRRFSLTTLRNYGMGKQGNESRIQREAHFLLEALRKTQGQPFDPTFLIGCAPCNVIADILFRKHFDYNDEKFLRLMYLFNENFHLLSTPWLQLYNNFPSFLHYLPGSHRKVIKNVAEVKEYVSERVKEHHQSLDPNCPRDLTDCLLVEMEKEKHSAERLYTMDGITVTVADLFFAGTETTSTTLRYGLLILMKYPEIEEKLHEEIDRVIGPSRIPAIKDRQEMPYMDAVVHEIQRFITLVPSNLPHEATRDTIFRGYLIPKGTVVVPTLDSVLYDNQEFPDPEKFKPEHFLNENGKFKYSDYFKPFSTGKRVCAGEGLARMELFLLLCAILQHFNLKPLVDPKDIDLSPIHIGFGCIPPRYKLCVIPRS

Nn1nnc2ccccc21
Not Active: IC50 (B2 bradykinin receptor) | IC50 [1] | Ki [1] | IC50 [2] | Ki [2] | IC50 [3] | Ki [3] | IC50 [4] | IC50 [5] | IC50 (Cytochrome P450 2E1) | Ki (Cytochrome P450 2E1)

CC[C@]1(O)CC[C@H]2[C@@H]3CCC4=CCCC[C@@H]4[C@H]3CC[C@@]21C
Not Active: IC50 (B2 bradykinin receptor) | IC50 [1] | Ki [1] | IC50 [2] | Ki [2] | IC50 [3] | Ki [3] | IC50 [4] | IC50 [5] | IC50 (Cytochrome P450 2E1) | Ki (Cytochrome P450 2E1)

N[C@@H](Cc1ccc(F)cc1)C(=O)O
Not Active: IC50 (B2 bradykinin receptor) | IC50 [1] | Ki [1] | IC50 [2] | Ki [2] | IC50 [3] | Ki [3] | IC50 [4] | IC50 [5]

CCOC(=O)[C@H](CCc1ccccc1)N[C@@H](C)C(=O)N1Cc2ccccc2C[C@H]1C(=O)O
Not Active: IC50 (B2 bradykinin receptor) | IC50 [1] | Ki [1] | IC50 [2] | Ki [2] | IC50 [3] | Ki [3] | IC50 [4] | IC50 [5] | IC50 (Cytochrome P450 2E1) | Ki (Cytochrome P450 2E1)

O=C(c1ccccc1Cl)N1CCC(Cc2ccccc2)CC1
Not Active: IC50 (B2 bradykinin receptor) | IC50 [1] | Ki [1] | IC50 [2] | Ki [2] | IC50 [3] | Ki [3] | IC50 [4] | IC50 [5] | IC50 (Cytochrome P450 2E1) | Ki (Cytochrome P450 2E1)

CCOC(=O)[C@H](CCc1ccccc1)N[C@@H](C)C(=O)N1CCC[C@H]1C(=O)O
Not Active: IC50 (B2 bradykinin receptor) | IC50 [1] | Ki [1] | IC50 [2] | Ki [2] | IC50 [3] | Ki [3] | IC50 [4] | IC50 [5] | IC50 (Cytochrome P450 2E1) | Ki (Cytochrome P450 2E1)

Clc1cc2c(cc1Cl)Oc1cc(Cl)c(Cl)cc1O2 [2,3,7,8-TETRACHLORODIBENZO-P-DIOXIN]
Not Active: IC50 (B2 bradykinin receptor) | IC50 [1] | Ki [1] | IC50 [2] | Ki [2] | IC50 [3] | Ki [3] | IC50 [4] | IC50 [5] | IC50 (Cytochrome P450 2E1) | Ki (Cytochrome P450 2E1)

C=C1/C(=C\C=C2/CCC[C@]3(C)[C@@H]([C@H](C)CCCC(C)C)CC[C@@H]23)C[C@@H](O)C[C@@H]1O [ALFACALCIDOL]
Not Active: IC50 (B2 bradykinin receptor) | IC50 [1] | Ki [1] | IC50 [2] | Ki [2] | IC50 [3] | Ki [3] | IC50 [4] | IC50 [5] | IC50 (Cytochrome P450 2E1) | Ki (Cytochrome P450 2E1)

CCCCCC[C@H]1C(=O)O[C@H](C)[C@H](NC(=O)c2cccc(NC=O)c2O)C(=O)O[C@@H](C)[C@@H]1OC(=O)CC(C)C [ANTIMYCIN A]
Not Active: IC50 (B2 bradykinin receptor) | IC50 [1] | Ki [1] | IC50 [2] | Ki [2] | IC50 [3] | Ki [3] | IC50 [4] | IC50 [5] | IC50 (Cytochrome P450 2E1) | Ki (Cytochrome P450 2E1)

C[C@@H]1CC[C@H]2[C@@H](C)C(=O)O[C@@H]3O[C@@]4(C)CC[C@@H]1[C@]32OO4 [ARTEMISININ]
Not Active: IC50 (B2 bradykinin receptor) | IC50 [1] | Ki [1] | IC50 [2] | Ki [2] | IC50 [3] | Ki [3] | IC50 [4] | IC50 [5]

CO[C@H]1[C@@H](O)[C@H](N)[C@@H](O[C@H]2O[C@H]([C@H](C)N)CC[C@H]2N)[C@H](O)[C@@H]1N(C)C(=O)CN [ASTROMICIN]
Not Active: IC50 (B2 bradykinin receptor) | IC50 [1] | Ki [1] | IC50 [2] | Ki [2] | IC50 [3] | Ki [3] | IC50 [4] | IC50 [5] | IC50 (Cytochrome P450 2E1) | Ki (Cytochrome P450 2E1)

[N-]=[N+]=CC(=O)OC[C@H](N)C(=O)O [AZASERINE]
Not Active: IC50 (B2 bradykinin receptor) | IC50 [1] | Ki [1] | IC50 [2] | Ki [2] | IC50 [3] | Ki [3] | IC50 [4] | IC50 [5] | IC50 (Cytochrome P450 2E1) | Ki (Cytochrome P450 2E1)

CC[C@H]1OC(=O)[C@H](C)[C@@H](O[C@H]2C[C@@](C)(OC)[C@@H](O)[C@H](C)O2)[C@H](C)[C@@H](O[C@@H]2O[C@H](C)C[C@H](N(C)C)[C@H]2O)[C@](C)(O)C[C@@H](C)CN(C)[C@H](C)[C@@H](O)[C@]1(C)O [AZITHROMYCIN]
Not Active: IC50 (B2 bradykinin receptor) | IC50 [1] | Ki [1] | IC50 [2] | Ki [2] | IC50 [3] | Ki [3] | IC50 [4] | IC50 [5] | IC50 (Cytochrome P450 2E1) | Ki (Cytochrome P450 2E1)

CCC[C@@H]1C[C@@H](C(=O)N[C@@H]([C@H]2O[C@H](SC)[C@H](O)[C@@H](O)[C@H]2O)[C@H](C)Cl)N(C)C1 [CLINDAMYCIN]
Not Active: IC50 (B2 bradykinin receptor) | IC50 [1] | Ki [1] | IC50 [2] | Ki [2] | IC50 [3] | Ki [3] | IC50 [4] | IC50 [5]

Cc1cn[nH]c1 [FOMEPIZOLE]
Not Active: IC50 (B2 bradykinin receptor) | IC50 [1] | Ki [1] | IC50 [2] | Ki [2] | IC50 [3] | Ki [3] | IC50 [4] | IC50 [5]

Cc1cnc(C(=O)NCCc2ccc(S(=O)(=O)NC(=O)NC3CCCCC3)cc2)cn1 [GLIPIZIDE]
Not Active: IC50 (B2 bradykinin receptor) | IC50 [1] | Ki [1] | IC50 [2] | Ki [2] | IC50 [3] | Ki [3] | IC50 [4] | IC50 [5]

COc1ccccc1OCC(O)CO (centres undefined) [GUAIFENESIN]
Not Active: IC50 (B2 bradykinin receptor) | IC50 [1] | Ki [1] | IC50 [2] | Ki [2] | IC50 [3] | Ki [3] | IC50 [4] | IC50 [5]

C/C=C\c1ccc(O)c(OC)c1 [ISOEUGENOL]
Not Active: IC50 (B2 bradykinin receptor) | IC50 [1] | Ki [1] | IC50 [2] | Ki [2] | IC50 [3] | Ki [3] | IC50 [4] | IC50 [5]
